Experimental data from publication PMC3019153 (PLoS ONE, 2011).
Values joined by “and” are separate entries in the source; they are usually repeats but may differ in a detail not shown here. Identical values can stand only once. “Also recorded” adds a separate entry of the source.

Legend:
[1] = target: T1, mycobacterial dephosphocoenzyme A kinase R140K mutant (Mycobacterium tuberculosis, UniProt P9WPA3, R140K); type: binding
[2] = target: mycobacterial dephosphocoenzyme A kinase R140A mutant (Mycobacterium tuberculosis, UniProt P9WPA3, R140A); type: biochemical
[3] = target: T2, mycobacterial dephosphocoenzyme A kinase D32E mutant (Mycobacterium tuberculosis, UniProt P9WPA3, D32E); type: biochemical
[4] = target: mycobacterial dephosphocoenzyme A kinase G8A mutant (Mycobacterium tuberculosis, UniProt P9WPA3, G8A); type: biochemical
[5] = target: mycobacterial dephosphocoenzyme A kinase L114A mutant (Mycobacterium tuberculosis, UniProt P9WPA3, L114A); type: biochemical
[6] = target: T3, mycobacterial dephosphocoenzyme A kinase K14A mutant (Mycobacterium tuberculosis, UniProt P9WPA3, K14A); type: biochemical
[7] = target: T4, mycobacterial dephosphocoenzyme A kinase D32A mutant (Mycobacterium tuberculosis, UniProt P9WPA3, D32A); type: biochemical
[8] = target: T2, mycobacterial dephosphocoenzyme A kinase D32E mutant; type: binding; details: pH 7.8
[9] = target: T4, mycobacterial dephosphocoenzyme A kinase D32A mutant; type: binding; details: pH 7.8
[10] = target: T5, wild type mycobacterial dephosphocoenzyme A kinase (CoaE) (Mycobacterium tuberculosis, UniProt P9WPA3); type: binding; details: pH 7.8
T5 sequence (P9WPA3 1-407): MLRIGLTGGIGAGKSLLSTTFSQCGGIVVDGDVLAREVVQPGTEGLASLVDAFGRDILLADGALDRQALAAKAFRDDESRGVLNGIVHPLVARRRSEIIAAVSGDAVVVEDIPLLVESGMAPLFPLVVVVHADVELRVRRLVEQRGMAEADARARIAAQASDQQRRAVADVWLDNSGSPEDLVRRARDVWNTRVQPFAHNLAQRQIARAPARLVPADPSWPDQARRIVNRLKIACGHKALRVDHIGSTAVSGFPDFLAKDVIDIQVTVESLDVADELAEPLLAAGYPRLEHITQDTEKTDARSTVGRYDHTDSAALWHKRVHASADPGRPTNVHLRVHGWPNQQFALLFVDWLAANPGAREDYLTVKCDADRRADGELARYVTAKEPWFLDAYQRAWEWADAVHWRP

[11] = target: T1, mycobacterial dephosphocoenzyme A kinase R140K mutant; type: biochemical
[12] = target: T3, mycobacterial dephosphocoenzyme A kinase K14A mutant; type: binding; details: pH 7.8
[13] = target: T5, wild type mycobacterial dephosphocoenzyme A kinase (CoaE); type: biochemical

Structure (SMILES)	Kcat [2]	Kcat [3] [s⁻¹]	Km [3] [µM]	increase in the affinity of the mutant enzyme [3] [%]	Kcat [4] [s⁻¹]	Km [4] [µM]	Kcat [5] [s⁻¹]	Km [5] [µM]	Kcat [6]	Km [6] [µM]	Kcat [7] [s⁻¹]	ΔH [12]	ΔS [12]	other results
Nc1ncnc2c1ncn2[C@@H]1O[C@H](COP(=O)(O)OP(=O)(O)OP(=O)(O)O)[C@@H](O)[C@H]1O [ATP]	nr	0.0666	34.5	60.58	0.04272	59.8	0.0192	63.9	2.34 and 2.34 min^−1	86.7	0.014			binding to ATP (in words) [1]: poor binding; also recorded: very poor binding; Km [2]: nr; increase in the Km [6]: 50%; reduction in the Kcat [6]: 19%; Kcat, % of the WT [7]: about 28%
CC(C)(COP(=O)(O)OP(=O)(O)OC[C@H]1O[C@@H](n2cnc3c(N)ncnc32)[C@H](O)[C@@H]1O)[C@@H](O)C(=O)NCCC(=O)NCCS [DCoA, dephosphocoenzyme A]	nr	0.0327	21.7	62.17	0.02572	37.2	0.0569	80.9	1.532 min⁻¹	75.8	0.00171	-3576 calM^−1 and −3576(±115.7) calM^−1	5.73(±0.37) calM^−1K^−1	Ka [8]: 2.12 (±2.61E3) M^−1*10^−4; ΔH [8]: −4355(±138.7) calM^−1; ΔS [8]: 4.94(±0.42) calM^−1K^−1; binding of the leading substrate (in words) [1]: reasonably well; Ka ([1]; pH 7.8): 2.17(±1.23E3) M^−1*10^−4; ΔH ([1]; pH 7.8): −7723 calM^−1; ΔS ([1]; pH 7.8): −6.5((±0.49) calM^−1K^−1; ΔH [9]: −1559(±72.9) calM^−1; ΔS [9]: −35.1(±0.98) calM^−1K^−1; ΔH [10]: −3719((±201.5) calM^−1; ΔS [10]: 6.32(±0.34) calM^−1K^−1; Kcat [11]: 0.00755 s⁻¹; Kcat, % of the WT [11]: ~15%; Km [11]: 181 µM; Ka [12]: 1.32(±1.45E3) M^−1*10^−4; Kcat [13]: 0.0257 s⁻¹ and 0.0293 s⁻¹; Km [7]: 501 µM; increase in the Km [7]: 15 fold
Nc1ncnc2c1ncn2[C@@H]1O[C@H](CO[P@](=O)(O)O[P@](=O)(O)O[P@@](=O)(O)S)[C@@H](O)[C@H]1O [NHATP, ATP-γS]												−1826 calM^−1 and −1826(±195.7) calM^−1	13.8 calM^−1K^−1 and 13.8(±0.59) calM^−1K^−1	N (binding) ([1]; pH 7.8): No binding
